Source: US20160002247A1, “8-SUBSTITUTED IMIDAZOPYRIMIDINONE DERIVATIVE HAVING AUTOTAXIN INHIBITORY ACTIVITY” (THE UNIVERSITY OF TOKYO, priority 2013, published 2016)
pIC50: −log10 of the molar value.

biological target: T1, Human autotaxin enzyme (Homo sapiens, UniProt Q13822); experiment: Evaluation of autotaxin inhibitor, Method C (Test Example 3): 18:0 Lyso PC, choline assay, Resorufin fluorescence; type: biochemical; settings: Assay Method C (Test Example 3), human autotaxin, 18:0 Lyso PC substrate; read-out: Inhibitory Activity (autotaxin enzyme inhibitory activity, IC50 class)
T1 construct: purchased R&D System
Outline: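 Choline-coupled fluorescence readout (20 min, resorufin at 531/598 nm) followed a 2 h room-temperature reaction of human autotaxin with 18:0 Lyso PC substrate (added as 200 μM solution) in pH 7.5 Tris buffer containing MgCl2 and Triton X-100. Percent inhibition scaled to no-compound (0%) and no-enzyme (100%) wells and plotted versus concentration.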

pIC50 | SMILES
7.00 to 8.00 | CCCCCn1c(N2CCC[C@H]2C(=O)N[C@@H]2CCNC2=O)cc(=O)n2cc(-c3ccc(Cl)cc3)nc12 [Compound 702]
7.00 to 8.00 | CCCCCn1c(N2CCC[C@H]2C(=O)N(C)CC(=O)N(C)C)cc(=O)n2cc(-c3ccc(Cl)cc3)nc12 [Compound 703]
7.00 to 8.00 | CCCCCn1c(N2CCC[C@H]2C(=O)N(C)CC(N)=O)cc(=O)n2cc(-c3ccc(Cl)cc3)nc12 [Compound 704]
6.00 to 7.00 | CCCCCn1c(N2CCC[C@H]2C(=O)N[C@@H]2CNC(=O)C2)cc(=O)n2cc(-c3ccc(Cl)cc3)nc12 [Compound 705]
7.00 to 8.00 | CCCCCn1c(N2CCC[C@H]2C(=O)NCC(=O)C(C)(C)C)cc(=O)n2cc(-c3ccc(Cl)cc3)nc12 [Compound 706]
6.00 to 7.00 | CCCCCn1c(N2CCC[C@H]2C(=O)N[C@H]2CCCCNC2=O)cc(=O)n2cc(-c3ccc(Cl)cc3)nc12 [Compound 707]
7.00 to 8.00 | CCCCCn1c(N2CCC[C@H]2C(=O)N[C@H]2CCNC2=O)cc(=O)n2cc(-c3ccc(Cl)cc3)nc12 [Compound 708]
6.00 to 7.00 | CCCCCn1c(N2CCC[C@H]2C(=O)N[C@H](C)C(N)=O)cc(=O)n2cc(-c3ccc(Cl)cc3)nc12 [Compound 709]
6.00 to 7.00 | CCCCCn1c(N2CCC[C@H]2C(=O)NC2CCCNC2=O)cc(=O)n2cc(-c3ccc(Cl)cc3)nc12 (stereo partly drawn) [Compound 710]
6.00 to 7.00 | CCCCCn1c(N2CCC[C@H]2C(=O)N[C@@H]2CCCNC2=O)cc(=O)n2cc(-c3ccc(Cl)cc3)nc12 [Compound 711]
6.00 to 7.00 | CCCCCn1c(N2CCC[C@H]2C(=O)N[C@H]2CNC(=O)C2)cc(=O)n2cc(-c3ccc(Cl)cc3)nc12 [Compound 712]
7.00 to 8.00 | CCCCCn1c(N2CCN(C(=O)c3ccc(O)cc3)CC2)cc(=O)n2cc(-c3ccc(Cl)cc3)nc12 [Compound 713]
6.00 to 7.00 | CCCCCn1c(NCC2(CO)COC2)cc(=O)n2cc(-c3ccc(Cl)cc3)nc12 [Compound 714]
7.00 to 8.00 | CCCCCn1c(N2CCC3(COC3)C2)cc(=O)n2cc(-c3ccc(Cl)cc3)nc12 [Compound 715]
6.00 to 7.00 | CCCCCn1c(N2CCC3(CC2)COC3)cc(=O)n2cc(-c3ccc(Cl)cc3)nc12 [Compound 716]
7.00 to 8.00 | CCCCCn1c(OCC2(F)COC2)cc(=O)n2cc(-c3ccc(Cl)cc3)nc12 [Compound 718]
6.00 to 7.00 | CCCCCn1c(OCC2(C)COC2)cc(=O)n2cc(-c3ccc(Cl)cc3)nc12 [Compound 719]
6.00 to 7.00 | CCCCCn1c(OCC2COC2)cc(=O)n2cc(-c3ccc(Cl)cc3)nc12 [Compound 720]
7.00 to 8.00 | CCCCCn1c(N2CCC[C@H]2C(=O)N[C@@H](Cc2c[nH]cn2)C(=O)O)cc(=O)n2cc(-c3ccc(Cl)cc3)nc12 [Compound 721]
> 8.00 | CCCCCn1c(N2CCC[C@H]2C(=O)N[C@H](C(=O)O)C(C)(C)C)cc(=O)n2cc(-c3ccc(Cl)cc3)nc12 [Compound 722]
> 8.00 | CCCCCn1c(N2CCC[C@H]2C(=O)N[C@H](C(=O)O)C(C)C)cc(=O)n2cc(-c3ccc(Cl)cc3)nc12 [Compound 723]

pIC50 | SMILES
> 8.00 | CCCCCn1c(N2CCC[C@H]2C(=O)N[C@@H](Cc2cccc3ccccc23)C(=O)O)cc(=O)n2cc(-c3ccc(Cl)cc3)nc12 [Compound 724]
7.00 to 8.00 | CCCCCn1c(N2CCC[C@H]2C(=O)N[C@H](Cc2ccccc2)C(=O)O)cc(=O)n2cc(-c3ccc(Cl)cc3)nc12 [Compound 725]
> 8.00 | CCCCCn1c(N2CCC[C@H]2C(=O)N[C@@H](Cc2ccc3ccccc3c2)C(=O)O)cc(=O)n2cc(-c3ccc(Cl)cc3)nc12 [Compound 726]
6.00 to 7.00 | CCCCCn1c(N2CCC[C@H]2C(=O)N[C@H](C(=O)O)C(c2ccccc2)c2ccccc2)cc(=O)n2cc(-c3ccc(Cl)cc3)nc12 [Compound 727]
> 8.00 | CCCCCn1c(N2CCC[C@H]2C(=O)N[C@@H](CCCC)C(=O)O)cc(=O)n2cc(-c3ccc(Cl)cc3)nc12 [Compound 728]
> 8.00 | CCCCCn1c(N2CCC[C@H]2C(=O)N[C@@H](CC)C(=O)O)cc(=O)n2cc(-c3ccc(Cl)cc3)nc12 [Compound 729]
> 8.00 | CCCCCn1c(N2CCC[C@H]2C(=O)N[C@@H](CC(C)(C)C)C(=O)O)cc(=O)n2cc(-c3ccc(Cl)cc3)nc12 [Compound 730]
> 8.00 | CCCCCn1c(N2CCC[C@H]2C(=O)N[C@@H](CCC)C(=O)O)cc(=O)n2cc(-c3ccc(Cl)cc3)nc12 [Compound 731]
> 8.00 | CCCCCn1c(N2CCC[C@H]2C(=O)N[C@H](C(=O)O)c2ccccc2)cc(=O)n2cc(-c3ccc(Cl)cc3)nc12 [Compound 732]
> 8.00 | CCCCCn1c(N2CCC[C@H]2C(=O)N[C@@H](CC(C)C)C(=O)O)cc(=O)n2cc(-c3ccc(Cl)cc3)nc12 [Compound 733]
> 8.00 | CCCCCn1c(N2CCC[C@H]2C(=O)N[C@@H](CC2CCCCC2)C(=O)O)cc(=O)n2cc(-c3ccc(Cl)cc3)nc12 [Compound 734]
> 8.00 | CCCCCn1c(N2CCC[C@H]2C(=O)N[C@@H](CCc2ccccc2)C(=O)O)cc(=O)n2cc(-c3ccc(Cl)cc3)nc12 [Compound 735]
> 8.00 | CCCCCn1c(N2CCC[C@H]2C(=O)N(CC(=O)O)Cc2ccccc2)cc(=O)n2cc(-c3ccc(Cl)cc3)nc12 [Compound 736]
> 8.00 | CCCCCn1c(N2CCC[C@H]2C(=O)NC(C)C(=O)O)cc(=O)n2cc(-c3ccc(Cl)cc3)nc12 (stereo partly drawn) [Compound 737]
> 8.00 | CCCCCn1c(N2CCC[C@H]2C(=O)N[C@H](CCCC)C(=O)O)cc(=O)n2cc(-c3ccc(Cl)cc3)nc12 [Compound 738]
> 8.00 | CCCCCn1c(N2CCC[C@H]2C(=O)N[C@H](CC)C(=O)O)cc(=O)n2cc(-c3ccc(Cl)cc3)nc12 [Compound 739]
> 8.00 | CCCCCn1c(N2CCC[C@H]2C(=O)N[C@@H](Cc2ccccc2)C(=O)O)cc(=O)n2cc(-c3ccc(Cl)cc3)nc12 [Compound 740]
> 8.00 | O=C(O)[C@H](Cc1ccccc1)NC(=O)[C@@H]1CCCN1c1cc(=O)n2cc(-c3ccc(Cl)cc3)nc2n1Cc1ccccc1 [Compound 743]
7.00 to 8.00 | O=C(O)CNC(=O)[C@@H]1CCCN1c1cc(=O)n2cc(-c3ccc(Cl)cc3)nc2n1Cc1ccccc1 [Compound 744]
> 8.00 | O=C(O)[C@H](CCc1ccccc1)NC(=O)[C@@H]1CCCN1c1cc(=O)n2cc(-c3ccc(Cl)cc3)nc2n1Cc1ccccc1 [Compound 745]
> 8.00 | CC(C)(C)[C@H](NC(=O)[C@@H]1CCCN1c1cc(=O)n2cc(-c3ccc(Cl)cc3)nc2n1Cc1ccccc1)C(=O)O [Compound 746]

pIC50 | SMILES
7.00 to 8.00 | CC(C)(NC(=O)[C@@H]1CCCN1c1cc(=O)n2cc(-c3ccc(Cl)cc3)nc2n1Cc1ccccc1)C(=O)O [Compound 747]
> 8.00 | C[C@H](NC(=O)[C@@H]1CCCN1c1cc(=O)n2cc(-c3ccc(Cl)cc3)nc2n1Cc1ccccc1)C(=O)O [Compound 748]
> 8.00 | O=C(O)[C@H](Cc1ccccc1)NC(=O)[C@@H]1C[C@@H](O)CN1c1cc(=O)n2cc(-c3ccc(Cl)cc3)nc2n1Cc1ccccc1 [Compound 749]
7.00 to 8.00 | O=C(O)CNC(=O)[C@@H]1C[C@@H](O)CN1c1cc(=O)n2cc(-c3ccc(Cl)cc3)nc2n1Cc1ccccc1 [Compound 750]
> 8.00 | O=C(O)[C@H](CCc1ccccc1)NC(=O)[C@@H]1C[C@@H](O)CN1c1cc(=O)n2cc(-c3ccc(Cl)cc3)nc2n1Cc1ccccc1 [Compound 751]
> 8.00 | CC(C)(C)[C@H](NC(=O)[C@@H]1C[C@@H](O)CN1c1cc(=O)n2cc(-c3ccc(Cl)cc3)nc2n1Cc1ccccc1)C(=O)O [Compound 752]
> 8.00 | CC(C)(NC(=O)[C@@H]1C[C@@H](O)CN1c1cc(=O)n2cc(-c3ccc(Cl)cc3)nc2n1Cc1ccccc1)C(=O)O [Compound 753]
> 8.00 | C[C@H](NC(=O)[C@@H]1C[C@@H](O)CN1c1cc(=O)n2cc(-c3ccc(Cl)cc3)nc2n1Cc1ccccc1)C(=O)O [Compound 754]
6.00 to 7.00 | CCn1c(N2CCC[C@H]2C(=O)N[C@@H](Cc2ccccc2)C(=O)O)cc(=O)n2cc(-c3ccc(Cl)cc3)nc12 [Compound 755]
6.00 to 7.00 | CCn1c(N2CCC[C@H]2C(=O)NCC(=O)O)cc(=O)n2cc(-c3ccc(Cl)cc3)nc12 [Compound 756]
7.00 to 8.00 | CCn1c(N2CCC[C@H]2C(=O)N[C@@H](CCc2ccccc2)C(=O)O)cc(=O)n2cc(-c3ccc(Cl)cc3)nc12 [Compound 757]
7.00 to 8.00 | CCn1c(N2CCC[C@H]2C(=O)N[C@H](C(=O)O)C(C)(C)C)cc(=O)n2cc(-c3ccc(Cl)cc3)nc12 [Compound 758]
7.00 to 8.00 | CCn1c(N2CCC[C@H]2C(=O)NC(C)(C)C(=O)O)cc(=O)n2cc(-c3ccc(Cl)cc3)nc12 [Compound 759]
7.00 to 8.00 | CCn1c(N2CCC[C@H]2C(=O)N[C@@H](C)C(=O)O)cc(=O)n2cc(-c3ccc(Cl)cc3)nc12 [Compound 760]
6.00 to 7.00 | CCn1c(N2C[C@H](O)C[C@H]2C(=O)N[C@@H](Cc2ccccc2)C(=O)O)cc(=O)n2cc(-c3ccc(Cl)cc3)nc12 [Compound 761]
< 6.00 | CCn1c(N2C[C@H](O)C[C@H]2C(=O)NCC(=O)O)cc(=O)n2cc(-c3ccc(Cl)cc3)nc12 [Compound 762]
7.00 to 8.00 | CCn1c(N2C[C@H](O)C[C@H]2C(=O)N[C@@H](CCc2ccccc2)C(=O)O)cc(=O)n2cc(-c3ccc(Cl)cc3)nc12 [Compound 763]
7.00 to 8.00 | CCn1c(N2C[C@H](O)C[C@H]2C(=O)N[C@H](C(=O)O)C(C)(C)C)cc(=O)n2cc(-c3ccc(Cl)cc3)nc12 [Compound 764]
6.00 to 7.00 | CCn1c(N2C[C@H](O)C[C@H]2C(=O)NC(C)(C)C(=O)O)cc(=O)n2cc(-c3ccc(Cl)cc3)nc12 [Compound 765]
7.00 to 8.00 | CCn1c(N2C[C@H](O)C[C@H]2C(=O)N[C@@H](C)C(=O)O)cc(=O)n2cc(-c3ccc(Cl)cc3)nc12 [Compound 766]
6.00 to 7.00 | Cn1c(N2CCC[C@H]2C(=O)N[C@@H](Cc2ccccc2)C(=O)O)cc(=O)n2cc(-c3ccc(Cl)cc3)nc12 [Compound 767]
